Structures are written as SMILES. “And” between values parts separate entries of the source, which are not always exact repeats. Equal values may be shown once.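 Where inhibition never reached the appropriate level, the endpoint shown equals the highest concentration tested. Otherwise, values were interpolated linearly from a five-concentration, 48-hour dose response in 96-well plates. The concentration for 50% growth inhibition is given as GI50. At the TGI there is no net growth.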

The assay deals with MDA-MB-468 breast. Kind of assay: NCI-60 cell line screen, 48 h.
In the case of `CC(C)[C@@H](CS(=O)(=O)C(C)C)N1C(=O)[C@@](C)(CC(=O)O)C[C@H](c2cccc(Cl)c2)[C@H]1c1ccc(Cl)cc1`, the GI50 is 11.6 µM and the TGI came to 45 µM.
In the same order, the values of `CC1(C)CC[C@]2(C(=O)O)CC[C@]3(C)[C@H](CC[C@@H]4[C@@]5(C)CCC(=O)C(C)(C)[C@@H]5CC[C@]43C)[C@H]2[C@H]1OC(=O)C(F)(F)F` are 5.83 µM and 21.1 µM.
In the same order, the values of `COc1cccc(C2C(C#N)=C(N)Oc3cc(OC)ccc32)c1` (stereo not given) are 0.0322 µM and greater than 60 µM.
The like results for `NCC(=O)CCC(=O)O` were, in that order, greater than 100 µM and greater than 100 µM.
For the compound `CC(C)(C)n1cc(-c2ccnc(NCCNS(=O)(=O)c3cccc4ccccc34)c2)c(-c2cccc(F)c2)n1`, the GI50 is 11 µM and the TGI worked out at 33.6 µM.
As to `COc1ccc(Cn2cc(Cn3c(=O)c(-c4nc5ccccc5[nH]4)cc4ccccc43)nn2)c(OC)c1OC`, the GI50 is 0.112 µM and 0.254 µM.
Consider `Cc1ccccc1NC(=O)c1sc2nc3c(cc2c1N)C(=O)CCC3`, for which the GI50 was 0.529 µM and the TGI worked out at 6.21 µM.
In the same order, the values of `COC(=O)[C@]12CC[C@@H](C)[C@H](C)[C@@H]1C1=CC[C@@H]3[C@@]4(C)C=C(O)C(=O)C(C)=C4CC[C@@]3(C)[C@]1(C)CC2` are 9.95 µM and 26.9 µM.
The like results for `COc1ccc(-c2[nH]ncc2-c2cc(OC)c(OC)c(OC)c2)cc1` were, in that order, less than 0.01 µM and 5.56 µM.
In the same order, the values of `c1ccc2c(c1)ccc1c3ccccc3ccc21` are 8.59 µM and greater than 50 µM.
Take `CCCCc1nc2cc(/C=C/C(=O)NO)ccc2n1CCN(CC)CC`: the GI50 was 0.177 µM and the TGI came to 1.91 µM.
The like results for `COc1cc(/C=C/C(=O)c2cc(OC)c(OC)c(OC)c2)cc(OC)c1OC` were, in that order, 3.07 µM and 14.8 µM.
The like results for `Oc1ccc(-c2nc3ccc4[nH]ncc4c3c3c2CCCC3)c2cccnc12` were, in that order, 0.787 µM and 2.02 µM.
`Nc1nc(Nc2ccc3c(c2)CCC(N2CCCC2)CC3)nn1-c1cc2c(nn1)-c1ccccc1CCC2` (stereo not given): the GI50 is 1.4 µM and the TGI turned out to be 2.9 µM.
For `COC1CCC(n2c([C@@H]3CCCC(=O)N3c3ccc(F)c(F)c3)nc3cc(-c4c(C)noc4C)ccc32)CC1` (stereo not given in full), the GI50 was 3.95 µM and the TGI was found to be 28.4 µM.
The like results for `COc1ccc(C(=O)N/N=C/c2ccc(O)cc2O)cc1Nc1ccnc(C(F)(F)F)c1` were, in that order, 0.365 µM and 68.1 µM.
The like results for `C#CC#CC#CC#CC#CC#CC#CC#CCC1OC[C@H](COC(=O)O[C@@H](C(=O)O[C@H]2C[C@@]3(O)[C@@H](OC(=O)c4ccccc4)[C@@H]4[C@]5(OC(C)=O)CO[C@@H]5C[C@H](O)[C@@]4(C)C(=O)[C@H](OC(C)=O)C(=C2C)C3(C)C)[C@@H](NC(=O)c2ccccc2)c2ccccc2)O1` (stereo not given in full) were, in that order, 0.139 µM and 0.922 µM.
For the compound `CN1c2ccccc2C(C)(C)C12CC(c1ccc(Cl)c(S(=O)(=O)N3CCCC3)c1)=NO2` (stereo not given), the GI50 is greater than 100 µM and the TGI was greater than 100 µM.
As to `C=C1C(=O)O[C@H]2[C@H]1CC/C(COC(=O)C(=O)c1cn(C)c3ccc(OC)cc13)=C\CC[C@@]1(C)O[C@@H]21`, the GI50 is 1.73 µM and the TGI turned out to be 2.92 µM.
The like results for `O=C1C(=O)c2c(nc3ncccn23)-c2ccccc21` were, in that order, 0.205 µM and 0.555 µM.
The like results for `COc1cc(C2c3cc4c(cc3OC(N3CCOCC3)C2C)OCO4)cc(OC)c1OC(C)=O` (stereo not given) were, in that order, 20 µM and greater than 100 µM.
In the same order, the values of `COc1ccc2sc3c(NCCCNCCO)nc4ccccc4c3c(=O)c2c1` are 1.73 µM and 3.41 µM.
As to `NC(N)=Nc1ccc(Oc2ccc(Nc3ccc(Cl)c(C(F)(F)F)c3)cc2)cc1`, the GI50 is 1.55 µM and the TGI was found to be 3.39 µM.
Consider `CN1CCN(c2cc(Nc3cc(C4CC4)[nH]n3)nc(Nc3ccc(CC(=O)NCc4cccc(F)c4)cc3)n2)CC1`, for which the GI50 was 2.6 µM and the TGI came to 16.7 µM.
In the same order, the values of `Clc1ccc(-c2cn(-c3ccccc3)c(-c3ccccc3)n2)c(Cl)c1` are greater than 50 µM and greater than 50 µM.
In the same order, the values of `CC(=O)OC1=C2C(CC3C4CC=C5CC(OC(C)=O)CCC5(C)C4CCC23C)C2C(=O)N(Cc3ccccc3)C(=O)C2C1` (stereo not given) are 2.84 µM and 14.9 µM.
Take `CCOC(=O)c1cnc2c(cnn2CC)c1NN=C(C)C`: the GI50 was 31.3 µM and the TGI was greater than 100 µM.
Take `Nc1c(O)c(S(=O)(=O)O)c(O)c2c1C(=O)c1ccccc1C2=O`: the GI50 was 2.1 µM and the TGI stood at 5.98 µM.
Regarding `CCC(C)CC(CC)NCCN1CCN(C(CC)CC(C)CC)C1=S` (stereo not given), the GI50 was 1.54 µM and the TGI amounted to 2.89 µM.
The like results for `COc1ccc(-c2nn(-c3cccc(NC(=O)Nc4cccc(C(F)(F)F)c4)c3)cc2-c2ccncc2)cc1Cl` were, in that order, 1.54 µM and 6.47 µM.
The like results for `CN(C)CCCC(=O)Nc1ccc(Cn2nnc3c2C(=O)c2nnn(Cc4ccc(NC(=O)CCCN(C)C)cc4)c2C3=O)cc1` were, in that order, 1.3 µM and 2.97 µM.
In the same order, the values of `CC12CCC(O)CC1CCC1C2CCC2(C)C(C3=CC(=O)OC3)CCC12` (stereo not given) are 5.29 µM and greater than 42.9 µM.
As for `CC(C)(C)c1ccc(C(=O)Nc2sc3c(c2C(N)=O)CC/C(=N\O)C3)cc1`, the GI50 is 3.06 µM and the TGI stood at 9.38 µM.

Values taken from PubChem BioAssay (NCI).
